Data reported in the CheMixHub viscosity set.
Several values for one entry are separate records, joined by “and”; a condition that tells them apart may be missing. Identical values can stand only once. ± gives the uncertainty stated by the source.

Tests used:
[1] = xn = mol fraction of the nth substance listed

CC(=O)N1CCOCC1 + CCC(C)O
viscosity [mPa·s], [1], 101 kPa
Conditions	293.15 K	303.15 K	313.15 K	323.15 K
x1 = 0.0516	5.054 ± 0.17	4.116 ± 0.14	3.093 ± 0.1	2.101 ± 0.072
x1 = 0.1322	6.732 ± 0.2	5.737 ± 0.18	4.626 ± 0.15	3.598 ± 0.12
x1 = 0.2217	8.167 ± 0.24	7.11 ± 0.21	5.901 ± 0.18	4.833 ± 0.16
x1 = 0.2879	8.981 ± 0.26	7.878 ± 0.23	6.596 ± 0.2	5.499 ± 0.18
x1 = 0.3188	9.257 ± 0.27	8.132 ± 0.24	6.816 ± 0.21	5.706 ± 0.18
x1 = 0.3996	9.785 ± 0.28	8.603 ± 0.25	7.199 ± 0.22	6.052 ± 0.19
x1 = 0.4597	10.02 ± 0.29	8.8 ± 0.26	7.33 ± 0.22	6.157 ± 0.19
x1 = 0.5084	–	–	7.42 ± 0.22	–
x1 = 0.5094	10.2 ± 0.29	8.944 ± 0.26	–	6.225 ± 0.2
x1 = 0.5496	10.27 ± 0.29	8.985 ± 0.26	7.418 ± 0.22	6.204 ± 0.2
x1 = 0.6127	10.29 ± 0.3	8.96 ± 0.26	7.323 ± 0.22	6.082 ± 0.19
x1 = 0.6444	10.11 ± 0.29	8.757 ± 0.26	7.086 ± 0.22	5.83 ± 0.19
x1 = 0.6915	10.11 ± 0.29	8.728 ± 0.26	7.005 ± 0.22	5.728 ± 0.18
x1 = 0.7516	9.956 ± 0.29	8.527 ± 0.25	6.739 ± 0.21	5.436 ± 0.18
x1 = 0.7984	9.588 ± 0.28	8.127 ± 0.24	6.288 ± 0.2	4.964 ± 0.17
x1 = 0.8599	9.409 ± 0.28	7.905 ± 0.24	5.998 ± 0.19	4.647 ± 0.16
x1 = 0.9127	8.959 ± 0.27	7.419 ± 0.23	5.454 ± 0.18	4.079 ± 0.14
x2 = 0.0157	8.843 ± 0.27	7.252 ± 0.23	5.209 ± 0.17	3.918 ± 0.14

O=[N+]([O-])c1ccccc1O + Brc1ccccc1
viscosity [mPa·s], [1], 101 kPa
Conditions	303.15 K	308.15 K	313.15 K	318.15 K	323.15 K
x1 = 0.602	1.884 ± 0.048	1.719 ± 0.043	1.576 ± 0.04	1.46 ± 0.037	1.35 ± 0.034
x1 = 0.8579	–	2.658 ± 0.068	2.366 ± 0.06	2.134 ± 0.054	1.934 ± 0.049

CC(O)CN(C)C (stereo unspecified)
101 kPa
Conditions	viscosity [mPa·s]
303.15 K	1.221 ± 0.017
308.15 K	1.097 ± 0.016
313.15 K	0.99 ± 0.015
318.15 K	0.902 ± 0.015
323.15 K	0.825 ± 0.014

Cc1cccc2ccccc12 + CCCCCCCCCCCC
[1], 323.15 K, 100 kPa
Conditions	viscosity
x1 = 0.382	1.01 ± 0.042 mPa·s and 1.02 ± 0.042 mPa·s
x1 = 0.699	1.22 ± 0.052 mPa·s

O=[N+]([O-])c1ccccc1O
viscosity [mPa·s]
Conditions	313.15 K	323.1 K	323.15 K
101 kPa	2.755 ± 0.026	2.68 ± 0.054	–
101.33 kPa	–	–	2.31 ± 0.023

CC(N)=O + O=C1CCCCCN1
[1], 101 kPa, x2 = 0.5
Conditions	viscosity [mPa·s]
303.1 K	66.67 ± 1
313.1 K	32.87 ± 0.56
323.1 K	22.69 ± 0.31

CC(=O)N(C)C + CCCCCO
viscosity [mPa·s], [1], 100 kPa
Conditions	298.15 K	313.15 K
x1 = 0.0569	3.02 ± 0.12	2.057 ± 0.083
x1 = 0.1068	2.69 ± 0.11	1.887 ± 0.076
x1 = 0.2009	2.246 ± 0.091	1.634 ± 0.066
x1 = 0.3051	1.92 ± 0.078	1.419 ± 0.057
x1 = 0.4017	1.68 ± 0.068	1.283 ± 0.052
x1 = 0.4989	1.498 ± 0.06	1.159 ± 0.047
x1 = 0.6011	1.358 ± 0.055	1.065 ± 0.043
x1 = 0.7029	1.223 ± 0.049	0.973 ± 0.039
x1 = 0.7966	1.121 ± 0.045	0.895 ± 0.036
x1 = 0.8962	1.041 ± 0.042	0.833 ± 0.034
x1 = 0.9519	0.981 ± 0.04	0.8 ± 0.032

NCCNCCO.O=S(=O)([N-]S(=O)(=O)C(F)(F)F)C(F)(F)F.[Li+] + O
[1], 323.15 K, 101 kPa
Conditions	viscosity [mPa·s]
x1 = 0.0304	1.63 ± 0.11
x1 = 0.06	3.61 ± 0.2
x1 = 0.0997	7.57 ± 0.41
x1 = 0.2003	27.72 ± 0.97
x1 = 0.3009	65.11 ± 2.3
x1 = 0.3955	114.4 ± 7.3
x1 = 0.4975	184.4 ± 18
x1 = 0.599	272.2 ± 33
x1 = 0.7014	372.3 ± 54
x1 = 0.8015	486.8 ± 80
x1 = 0.8978	605.3 ± 110

O=[N+]([O-])c1ccccc1O + CCCCCOC(C)=O
Conditions	viscosity [mPa·s]
[1], 298.15 K, 101 kPa, x1 = 0.5	1.051 ± 0.01

CC(=O)N(C)C + CC#N
[1], 303.15 K, 101.33 kPa
Conditions	viscosity [mPa·s]
x2 = 0.0996	0.8371 ± 0.011
x2 = 0.2019	0.7966 ± 0.01
x2 = 0.2938	0.7487 ± 0.0097
x2 = 0.3974	0.7001 ± 0.0092
x2 = 0.497	0.6422 ± 0.0086
x2 = 0.5983	0.5843 ± 0.008
x2 = 0.7013	0.5199 ± 0.0073
x2 = 0.7983	0.4568 ± 0.0066
x2 = 0.9001	0.3878 ± 0.0058

CC(=O)N(C)C + CCCCn1cc[n+](C)c1.F[B-](F)(F)F
[1], 101.33 kPa
Conditions	viscosity [mPa·s]
293.15 K, x2 = 0.8488	74.2 ± 11
293.15 K, x2 = 0.9175	95.64 ± 14
298.15 K, x2 = 0.9175	80.5 ± 12
308.15 K, x2 = 0.437	7.88 ± 1.2
323.15 K, x2 = 0.7419	9.78 ± 1.5

CC(=O)N1CCOCC1 + CCO
viscosity [mPa·s], [1], 101 kPa
Conditions	293.15 K	303.15 K	313.15 K	323.15 K
x1 = 0.0563	1.847 ± 0.043	1.495 ± 0.035	1.153 ± 0.028	0.928 ± 0.023
x1 = 0.1288	2.747 ± 0.062	2.302 ± 0.053	1.832 ± 0.043	1.518 ± 0.036
x1 = 0.2164	3.689 ± 0.082	3.134 ± 0.071	2.511 ± 0.057	2.096 ± 0.048
x1 = 0.2843	4.374 ± 0.097	3.728 ± 0.083	2.983 ± 0.068	2.484 ± 0.057
x1 = 0.3147	4.656 ± 0.1	3.974 ± 0.089	3.174 ± 0.072	2.639 ± 0.06
x1 = 0.3944	5.318 ± 0.12	4.533 ± 0.1	3.594 ± 0.081	2.966 ± 0.068
x1 = 0.4512	5.718 ± 0.12	4.858 ± 0.11	3.819 ± 0.086	3.122 ± 0.071
x1 = 0.4957	6.016 ± 0.13	5.101 ± 0.11	3.983 ± 0.09	3.232 ± 0.074
x1 = 0.5253	6.179 ± 0.13	5.227 ± 0.12	4.056 ± 0.092	3.269 ± 0.075
x1 = 0.5832	6.499 ± 0.14	5.472 ± 0.12	4.199 ± 0.096	3.343 ± 0.077
x1 = 0.6341	6.728 ± 0.14	5.638 ± 0.12	4.275 ± 0.098	3.358 ± 0.078
x1 = 0.6813	6.984 ± 0.15	5.832 ± 0.13	4.387 ± 0.1	3.413 ± 0.08
x1 = 0.7348	7.169 ± 0.15	5.948 ± 0.13	4.407 ± 0.1	3.369 ± 0.079
x1 = 0.7921	7.459 ± 0.16	6.164 ± 0.14	4.522 ± 0.11	3.417 ± 0.081
x1 = 0.8452	7.653 ± 0.16	6.289 ± 0.14	4.554 ± 0.11	3.434 ± 0.082
x1 = 0.9127	8.019 ± 0.17	6.569 ± 0.15	4.788 ± 0.11	3.615 ± 0.087
x1 = 0.9734	8.395 ± 0.18	6.932 ± 0.15	5.046 ± 0.12	3.797 ± 0.092

CCCCCCCCCO + CCCCCCCCO
viscosity [mPa·s], [1], 101.8 kPa
Conditions	x2 = 0.1095	x2 = 0.3227	x2 = 0.5251	x2 = 0.7208	x2 = 0.9082
298.15 K	9.3 ± 0.35	8.885 ± 0.34	8.493 ± 0.34	8.137 ± 0.34	7.796 ± 0.33
308.15 K	6.575 ± 0.34	6.317 ± 0.33	6.057 ± 0.33	5.821 ± 0.33	5.595 ± 0.32
318.15 K	4.761 ± 0.33	4.579 ± 0.33	4.408 ± 0.33	4.248 ± 0.32	4.093 ± 0.32
